In patent publication US20160303094A1, “PHARMACEUTICAL COMPOSITIONS COMPRISING ANTIBACTERIAL AGENTS” (priority 2013, published 2016):
Structures can show the parent of a compound that is named as a salt.

Test system: A. baumannii S 226 strain producing CHDL Oxacillinases (OXA 51, OXA-23)
Experiment: Time-kill study: viable bacterial count in Mueller Hinton broth
Type: cell-based, Acinetobacter baumannii
Settings: for Bacterial count: initial count 6.62 log CFU/ml
Description: The antibacterial activity of compositions according to the invention against various bacterial strains was investigated. In a typical study, freshly grown cultures were diluted to required cell density (initial starting inoculum) in Mueller Hinton broth medium (BD, USA). The antibacterial agents, either alone or in combination, at required concentrations were added into the medium containing the desired initial starting inoculum. The samples were incubated under shaking condition (120 rpm) at 37° C. Enumeration of viable bacterial count was undertaken, every 2 hours, by diluting in normal saline and plating on to the Tryptic Soya Agar plates (BD, USA). The plates were incubated for 24 hours to arrive at the viable bacterial count. The antibacterial activity is expressed in terms of Colony Forming Units (CFU). The decrease of 1 Log CFU/ml, after administration of combination of present invention, in comparison to initial bacterial count corresponds to 90% killing of bacteria. Similarly, 2 Log CFU/ml reductions corresponds to 99% killing of bacteria and 3 Log CFU/ml reductions is equal to 99.9% killing of bacteria.
The combination according to invention was tested against highly resistant A. baumannii S 226 strain producing Carbapenem hydrolyzing (CHDL) Oxacillinases [OXA-51, OXA-23]. The assay without any antibacterial agent was taken as control.

[1] = 2 hours, active ingredient alone at 8 mcg/ml
[2] = 4 hours, active ingredient alone at 8 mcg/ml
[3] = 6 hours, active ingredient alone at 8 mcg/ml
[4] = 8 hours, active ingredient alone at 8 mcg/ml
[5] = 24 hours, active ingredient alone at 8 mcg/ml

| SMILES | Bacterial count [1] | Bacterial count [2] | Bacterial count [3] | Bacterial count [4] | Bacterial count [5] | decrease of the bacterial count of A. baumannii throughout the duration of the study (used alone at 8 mcg/ml) | Bacterial count (2 hours, active ingredient alone at 4 mcg/ml) | Bacterial count (4 hours, active ingredient alone at 4 mcg/ml) | Bacterial count (6 hours, active ingredient alone at 4 mcg/ml) | Bacterial count (8 hours, active ingredient alone at 4 mcg/ml) | Bacterial count (24 hours, active ingredient alone at 4 mcg/ml) | decrease of the bacterial count of A. baumannii throughout the duration of the study (used alone at 4 mcg/ml) |
| --- | --- | --- | --- | --- | --- | --- | --- | --- | --- | --- | --- | --- |
| C[C@@H](O)[C@H]1C(=O)N2C(C(=O)O)=C(SCCN=CN)C[C@H]12 [Imipenem] | 7.46 Log10 CFU/ml | 8.26 Log10 CFU/ml | 8.43 Log10 CFU/ml | 8.52 Log10 CFU/ml | 8.74 Log10 CFU/ml | – | – | – | – | – | – | – |
| C[C@@H](O)[C@H]1C(=O)N2C(C(=O)O)=C(S[C@@H]3CN[C@H](CNS(N)(=O)=O)C3)[C@H](C)[C@H]12 [Doripenem] | 7.95 Log10 CFU/ml | 8.08 Log10 CFU/ml | 8.12 Log10 CFU/ml | 8.50 Log10 CFU/ml | 8.30 Log10 CFU/ml | failed to decrease the bacterial count | – | – | – | – | – | – |
| C[C@@H](O)[C@H]1C(=O)N2C(C(=O)O)=C(S[C@@H]3CN[C@H](C(=O)N(C)C)C3)[C@H](C)[C@H]12 [Meropenem] | 8.00 Log10 CFU/ml | 8.34 Log10 CFU/ml | 8.45 Log10 CFU/ml | 8.65 Log10 CFU/ml | 8.70 Log10 CFU/ml | failed to decrease the bacterial count | – | – | – | – | – | – |
| N#C[C@@H]1CC[C@@H]2CN1C(=O)N2OS(=O)(=O)O [Sodium salt of a compound of Formula (I), sodium salt of sulphuric acid, mono[(1R,2S,5R)-2-cyano-7-oxo-1,6-diazabicyclo[3.2.1]oct-6-yl] ester] | – | – | – | – | – | – | 7.93 Log10 CFU/ml | 7.95 Log10 CFU/ml | 8.20 Log10 CFU/ml | 8.50 Log10 CFU/ml | 8.60 Log10 CFU/ml | failed to decrease the bacterial count |
